The test system of test [1] is E aerogenes. As to the kind of experiment: Antibiotic Susceptibility Testing (AST) profile by classical microbiology, BAL sample 1. The format is cell-based. The note with it: positive BAL metagenomic sample 1, pathogen E aerogenes. An excerpt:
Three validation studies of the metagenomic analysis according to the invention have been done. The first validation study relies on in silico simulated metagenomes (validation study 1), the second validation study is a set of 3 positive miniBAL metagenomic samples for which only the culture identification is available (validation study 2), and the third validation study is a set 2 positive BAL metagenomic samples with identification and AST profiles available (validation study 3). For all the evaluation, Kraken is used for taxonomic binning and ARD binning (steps 22, 24) and IDBA-UD is used for assembly (step 28).
In Table 3, one notes that both pipelines give very similar results and results coherent with classical microbiology, at least for identification results. Both pipelines give similar results, probably because the ARD retrieved are present in the reference sequences of the 2 pathogens, ie. AmpC must be present in the reference sequences of E. aerogenes, and ANT(9)-1A in the reference sequences of S aureus.

Test [2] concerns S aureus. As to the kind of experiment: Antibiotic Susceptibility Testing (AST) profile by classical microbiology, BAL sample 2. The note with it: positive BAL metagenomic sample 2, pathogen S aureus. The format is cell-based.

`O=C(O)[C@H]1/C(=C/CO)O[C@@H]2CC(=O)N21` [clavunalate]: the AST profile result in test [1] is recorded as “resistance: amoxiciline, clavunalate”.

For `CC1(C)S[C@@H]2[C@H](NC(=O)[C@H](N)c3ccc(O)cc3)C(=O)N2[C@H]1C(=O)O` [amoxiciline], the AST profile result in test [1] is “resistance: amoxiciline, clavunalate”.

As to `CO/N=C(\C(=O)N[C@@H]1C(=O)N2C(C(=O)O)=C(COC(N)=O)CS[C@H]12)c1ccco1` [cefuroxime], the AST profile entry in test [1] was “intermediate resistance: cefuroxime”.

Regarding peniciline, the AST profile entry in test [2] was “resistance: peniciline, clindamycine”.

Source of the values: patent US20190252042A1, “INDENTIFICATION AND ANTIBIOTIC CHARACTERIZATION OF PATHOGENS IN METAGENOMIC SAMPLE” (BIOMÉRIEUX, priority 2016, published 2019).
